Measurements reported in PMC9967674, “Characterization and Functional Analysis of OcomOBP7 in Ophraella communa Lesage” (Insects, 2023).

Assays:
OcomOBP7 [1] = assay: Fluorescence competitive binding assay (1-NPN displacement); parameters: species or system Ophraella communa; settings: 1-NPN 2 μM; for Ki: Ki = [IC50]/(1 + [1-NPN]/K1-NPN), OcomOBP7 2 μM, pH 7.4, read-out: Ki (dissociation constant); for IC50: recombinant OcomOBP7 2 μM, 50 mM Tris-HCl pH 7.4, ligand 2–20 μM
Protocol: Based on previous research on the volatiles of A. artemisiifolia, 26 standard chemical odors were selected to verify the binding characteristics of OcomOBP7 using a fluorescence binding assay (Table 2).
(§1) Fluorescence competition binding experiments were performed using an F-380 fluorescence spectrophotometer (Gangdong Technology, Tianjin, China), and the quartz cuvette was 1 cm wide. The excitation and emission slits were 10 nm, the sensitivity was 2 s, the emission wavelength range was 360–500 nm, the excitation wavelength was 337 nm, and the scanning speed was 1200 nm/min. The fluorescent probe, 1-NPN, was dissolved in a chromatographic methanol solution at a concentration of 1 mM. The target protein was diluted to 2 μM with 50 mM Tris-HCl (pH 7.4), and 1 mL of protein diluent was added to the cuvette. The 1-NPN fluorescent probe was added to the protein diluent to obtain a final concentration of 2–20 μM and was allowed to stand for 30 s after mixing. The maximum fluorescence value for each addition of 1-NPN was recorded, and three replicates were used. The 1-NPN fluorescent probe was added to the protein diluent at a final concentration of 2 μM, mixed well, and allowed to stand for 30 s. The maximum fluorescence intensity of 1-NPN was recorded. The odorant ligand was then added at a final concentration of 2–20 μM, and the maximum fluorescence value produced by the mixed solution was determined.
The dissociation constants Ki of OcomOBP7 and the fluorescent ligand compounds were calculated using the Scatchard equation. The formula is as follows: Ki = [IC50]/(1 + [1-NPN]/K1-NPN), where [1-NPN] represents the concentration of unbound 1-NPN, and K1-NPN is the binding constant of the OcomOBP7/1-NPN complex.

OcomOBP7 [2] = assay: Binding of fluorescent probe 1-NPN to OcomOBP7 (binding curve, Scatchard); parameters: species or system Ophraella communa; settings: OcomOBP7 2 μM, 1-NPN 2–20 μM, pH 7.4; read-out: binding constant (Kd) of the protein and probe 1-NPN
Protocol: as §1
The dissociation constants Ki of OcomOBP7 and the fluorescent ligand compounds were calculated using the Scatchard equation. […]

O. communa antennae [3] = tested on: O. communa antennae; parameters: method as in a previous experiment; settings: ref a previous experiment; cited from earlier work
O. communa antennae [4] = assay: Electroantennography (EAG) after RNAi; type: in vivo, Ophraella communa; settings: odorant 10 μg/μL in n-hexane, 10 μL; for EAG response of O. communa antennae: after injection of dsRNA (dsOBP7), 48 h; for average EAG response of O. communa antennae: dsEGFP control group, 48 h after injection
Protocol: dsRNA templates were synthesized by PCR using primers containing the T7 promoter sequence as templates. dsRNA was synthesized in vitro using a T7 RNAi Transcription Kit (Ambion Inc., Waltham, MA, USA) according to the manufacturer’s instructions. dsRNA was dissolved in DEPC water and its concentration determined using a Nanophotometer P330 (Implen, Germany). The quality of RNA was determined using 1% gel electrophoresis. Female and male adults with an initial emergence of <12 h were injected. A Nanoliter 2000 microinjector (WPI, Sarasota, FL, USA) was used to inject 1 ng of dsRNA into the pronotum of beetles. dsEGFP was used as a control. After injection, the beetles were kept in Petri dishes and fed fresh A. artemisiifolia leaves daily.
Based on the fluorescence binding experimental results, α-pinene, ocimene, and myrcene were used for the electrophysiological experiments. […] Therefore, the odorants in this experiment were dissolved in n-hexane at a final concentration of 10 μg/μL, with n-hexane alone serving as a blank control. Filter paper strips with 10 μL of odorant were placed in a Pasteur Pipette for EAG experiments. The head and end of one antenna of the O. communa adult were cut off with a blade 48 h after the injection of dsRNA. A glass electrode filled with KCl conductivity liquid was inserted into the incision of the head of the O. communa and then connected to the electroantennogram system. The antenna incision was connected to a glass electrode at the other end using a micromanipulator. Each odorant was stimulated for 0.2 s with an interval of more than 30 s. Each treatment consisted of more than 20 biological replicates. Finally, the response curve was recorded using the EAG2000 software.

O. communa = tested on: O. communa; parameters: method as in previous experiment results (unpublished data); settings: ref previous experiment results (unpublished data); cited from earlier work

| Compound | Ki (OcomOBP7 [1]) | IC50 (OcomOBP7 [1]) | Kd (OcomOBP7 [2]) | activation of antennal response via the EAG method (O. communa antennae [3]) | EAG response of O. communa antennae (O. communa antennae [4]) | average EAG response of O. communa antennae (O. communa antennae [4]) | attraction of the beetles (O. communa) |
| --- | --- | --- | --- | --- | --- | --- | --- |
| c1ccc(Nc2cccc3ccccc23)cc1 [1-NPN] |  |  | 1470 ± 200 nM |  |  |  |  |
| CC(=O)OC1CC2CCC1(C)C2(C)C (stereo not drawn) [Bornyl acetate] | 20.37 ± 0.07 µM | 32.2 µM |  |  |  |  |  |
| C=C1C2CCC(C2)C1(C)C (stereo not drawn) [Camphene] | 9.85 ± 0.66 µM | 15.5 µM |  |  |  |  |  |
| C=CC(=C)CCC=C(C)C [Myrcene] | 3.97 ± 0.85 µM | 6.26 µM |  |  | 0.09 ± 0.01 | 0.10 ± 0.01 | significantly attract |
| C=C1CCC2(C(C)C)CC12 (stereo not drawn) [Sabinene] | 4.75 ± 0.14 µM | 7.49 µM |  |  |  |  |  |
| CC1=CCC(C(C)C)=CC1 [Y-Terpinene] | 4.7 ± 0.32 µM | 7.42 µM |  |  |  |  |  |
| CC1=CCC2CC1C2(C)C (stereo not drawn) [α-Pinene] | 6.55 ± 0.05 µM | 10.3 µM |  |  | 0.28 ± 0.02 | 0.36 ± 0.03 | significantly attract |
| C=C1CCC2CC1C2(C)C (stereo not drawn) [β-Pinene] | 10.9 ± 0.59 µM | 17.2 µM |  |  |  |  |  |

More lines, main results first:

| Ki (OcomOBP7 [1]) | IC50 (OcomOBP7 [1]) | Compound | Kd (OcomOBP7 [2]) | activation of antennal response via the EAG method (O. communa antennae [3]) | EAG response of O. communa antennae (O. communa antennae [4]) | average EAG response of O. communa antennae (O. communa antennae [4]) | attraction of the beetles (O. communa) |
| --- | --- | --- | --- | --- | --- | --- | --- |
| 2.84 ± 0.2 µM | 4.48 µM | C=C(C)C1CC=C(C)CC1 (racemic) [DL-Limonene] |  |  |  |  |  |
| 0.48 ± 0.04 µM | 0.76 µM | C=CC(=C)CC/C=C(\C)CCC=C(C)C [(E)-β-farnesene] |  | cannot activate the antennal response |  |  |  |
| 2.22 ± 0.11 µM | 3.5 µM | C=C(C)[C@H]1CC=C(C)CC1 [(R)-(+)-Dipentene] |  |  |  |  |  |
| 1.23 ± 0.11 µM | 1.94 µM | C=CC(C)=CCC=C(C)C [Ocimene] |  |  | 0.14 ± 0.01 | 0.19 ± 0.01 | significantly attract |
| 0.67 ± 0.12 µM | 1.05 µM | CCCCCCCC [n-Octane] |  |  |  |  |  |
| 2.91 ± 0.42 µM | 4.59 µM | CC1=CC[C@H](C(C)C)C=C1 [α-phellandrene] |  |  |  |  |  |
| 2.55 ± 0.4 µM | 4.02 µM | (S)-(-)-Limonene |  |  |  |  |  |
